Like-named read-outs stand apart in the source and are kept apart here.

Assay [1] relates to immobility time in the forced swim test. The note with it: without significantly altering locomotor activity, cited from earlier work.
The test system is the same in assay [2]. The settings on record: tested 0.5, 1, 2 and 4 h post-dosing.
Description: Forced swim test was used to measure the depression-like behavior in rats after acute and chronic drug treatment. Animals were randomly divided into six groups. The animals in Groups 1, 2 and 3 were used for acute treatment, and the animals in Groups 4, 5 and 6 were used for chronic treatment (once a day for 14 days). […] The entire test was performed in 2 consecutive days: a 15-min pretest session on day 1 followed by a 5-min test session the next day. On the pretest day, rats were individually forced to swim for 15 min in a plastic cylinder (diameter 22 cm, height 46 cm) containing water (25±1°C) with a depth of 30 cm. On the test day, rats were placed in the cylinder again for a 5-min test trial at 0.5, 1, 2 and 4 h post-dosing (n = 10 rats per time point in each group). The total duration of immobilization was recorded. The criterion for immobilization was vertical floating in the water and movements necessary to keep the head above the water. After the test, animals were removed and dried with towels before returning to their home cage.
In assay [3] the test system is extracellular DA levels in the rat striatum. Briefly: microdialysis: extracellular DA levels in the rat striatum.
The test system of assay [4] is extracellular NE levels in the rat striatum. Put plainly: microdialysis: extracellular NE levels in the rat striatum.
Assay [5] deals with extracellular 5-HT levels in the rat striatum. Put plainly: microdialysis: extracellular 5-HT levels in the rat striatum.
Setting [6] is: chronic oral suspension 0.06 mmol·kg^−1·day^−1 for 14 days.
Setting [7] is: acute oral administration (oral solution, oral suspension 0.06 mmol·kg^−1).

Consider `CC(NC(C)(C)C)C(=O)c1cccc(Cl)c1` (stereo not shown) [bupropion], for which the “immobility time in the forced swim test” value in assay [1] (10 mg/kg) is recorded as “reduce the immobility time”.

As to `CN(C)CC(c1ccc(O)cc1)C1(O)CCCCC1` (stereo not shown) [desvenlafaxine], the “immobility time in the forced swim test vs. vehicle” value is recorded as “only significantly reduced the immobility time at 1 h” in assay [2] (acute oral suspension 0.06 mmol·kg^−1) and “significantly reduced the immobility time” in assay [2] (setting [6]). The “effect on extracellular DA levels” value is given as “did not significantly alter the extracellular DA levels” in assay [3] (acute, oral administration or intravenous administration) and “did not significantly alter the extracellular DA levels” in assay [3] (setting [6]). In addition, the “effect on extracellular NE levels vs. relative vehicle” value in assay [4] (acute intravenous administration 0.04 mmol·kg^−1) is “marked and significant increases”; in assay [4] (setting [7]), “slight but significant increases”. Besides, the “extracellular NE peak value (% of basal)” value in assay [4] (chronic oral suspension 0.06 mmol·kg^−1·day^−1 for 14 days, at 60 min) stood at 139±9%. Besides, the “extracellular 5-HT levels increased to (% of basal)” value in assay [5] (acute intravenous solution 0.04 mmol·kg^−1, after the initial 90 min decrease, then returned to basal) is 162±15%. Besides, the “decrease in extracellular 5-HT levels” value in assay [5] (acute intravenous solution 0.04 mmol·kg^−1, during the first 90 min post-dosing) was found to be 90%. For the same compound, the “effect on extracellular 5-HT levels vs. relative vehicle” value in assay [5] (setting [7]) is given as “slight but significant increases”. Also, the “increase in 5-HT AUC0–240 min value of the vehicle group” value in assay [5] (setting [6]) is 187±25%.

Consider `CN1Cc2c(N)cccc2C(c2ccccc2)C1` (stereo not shown) [nomifensine], for which the “immobility time in the forced swim test” value in assay [1] (2.5 mg/kg) is listed as “reduce the immobility time”.

Values taken from article PMC3948889, “The Effects of LPM570065, a Novel Triple Reuptake Inhibitor, on Extracellular Serotonin, Dopamine and Norepinephrine Levels in Rats” (PLoS ONE, 2014).
